According to US20260083742A1, “HOMOLOGOUS RECOMBINATION REPAIR DEFICIENCY (HRD) AS A PREDICTIVE BIOMARKER FOR TREATING CANCER WITH WEE1 INHIBITORS” (Zeno Management, Inc., priority 2023, published 2026):
pIC50: −log10 of the molar value.

What was measured:
[1] = system: parental MDA-MB-436 TNBC cell line; assay: In vitro activity (IC50) in parental MDA-MB-436; type: cell-based; settings: Homo sapiens; parental MDA-MB-436; read-out: In vitro activity (IC50) Wild Type
Experimental: (§1) Cells with BRCA reversion mutations may be considered HRD+due to genome instability (such as TAI, LST, LOH). BRCA reversion mutation is an established mechanism of resistance to both platinum-based chemotherapeutic drugs and PARP inhibitors. In vivo exploration of WEE1 inhibitors (azenosertib, adavosertib) and PARP inhibitors (niraparib, olaparib) was evaluated.
(§2) MDA-MB-436 PARP inhibitor-resistant lines were generated by long-term in vitro treatment with a PARP inhibitor that is olaparib (Ola^R) or niraparib (Nir^R).

[2] = system: 22RV1 (prostate cancer cell line) subcutaneous xenografts; assay: 22RV1 subcutaneous xenograft tumor growth inhibition; type: in vivo, CB17 SCID mice
Experimental: The prostate cancer cell line 22RV1 harbors a BRCA2 pathogenic mutation (HRD+). Briefly, 72 tumor-bearing mice were randomized and assigned into nine groups using a randomized block design based on their tumor volumes with eight mice per group. Each mouse was inoculated subcutaneously at the right flank with 22RV1 tumor cells in 0.2 mL mixture of Matrigel (5×10^6 cells/mouse). Treatments were started when the tumor size reached 199.94 mm^3 for tumor efficacy studies (Day 14 post inoculation). [table] Tumor size was measured twice weekly in two dimensions using caliper and expressed in mm3 using the formula: where a and b were long and short diameters of the tumor. The tumor size was used for calculations of T/C %. The T/C(%) was calculated according to the following formula: Two-way ANOVA followed by Bonferroni post-test was performed to compare tumor volumes among vehicle and other groups.

[3] = system: MDA-MB-436 niraparib-resistant model; assay: MDA-MB-436 niraparib-resistant CDX model in vivo; settings: azenosertib 80 mg/kg
Text: (§3) MDA-MB-436 PARP inhibitor-resistant lines were generated by long-term in vitro treatment with a PARP inhibitor that is olaparib (Ola^R) or niraparib (Nir^R). Resistant cells were confirmed by sequencing to have BRCA1 reversion mutation. The parental MDA-MB-436 cell line remains sensitive to PARP inhibitors as expected (FIG. 5A), while the Nir^R (FIG. 5B) and Ola^R (FIG. 5C) MDA-MB-436 cell lines are no longer sensitive to PARP inhibitors but are sensitive to azenosertib. Azenosertib activity was further confirmed in the PARP inhibitor-resistant MDA-MB-436 CDX model in vivo. […] WEE1 inhibitor or PARP inhibitor treatment in the Parental TNBC animal model (without PARP inhibitor resistance) is shown in FIG. 5D.

[4] = system: MDA-MB-436 olaparib-resistant model; assay: MDA-MB-436 olaparib-resistant CDX model in vivo; settings: azenosertib 80 mg/kg
Text: as §3

[5] = system: HGSOC with HRD+ status (BRCA1m); assay: Human subject with HRD+ platinum-resistant, PARP inhibitor-resistant ovarian cancer treated with azenosertib; type: in vivo; settings: one subject
Experimental: A subject with HGSOC selected to have HRD+ status (e.g., BRCA1m) confirmed by qualitative next-generation sequencing based in vitro diagnostic test (FoundationOne®CDx) was administered azenosertib in accordance with an intermittent dosing schedule of at least 400 mg azenosertib once a day for five consecutive days, followed by two off days. The subject received azenosertib for five months. The subject is a person who received 7 prior lines of therapy: (1) carboplatin/paclitaxel/bevacizumab/olaparib (PD); (2) Pembrolizumab (PD); (3) NaPi2b targeting-ADC (XMT-1536) (PD); (4) carboplatin/gemcitabine/bevacizumab (PD); (5) Pegylated doxorubicin (PD); (6) Topotecan (PD); (7) PABP-1 RNP (ATRC-101) (PD).

[6] = system: HBCx-9, HBCx-10 and HBCx-17 triple-negative breast cancer (TNBC) PDX models; assay: Anti-tumor efficacy in TNBC patient-derived xenograft models; type: in vivo, mice; settings: HBCx-10 and HBCx-17 (HRD+) vs HBCx-9 (HRD-); azenosertib 60 mg/kg, niraparib 35 mg/kg
Text: Treatments were initiated 28 days post implantation of the tumor cells. The study period ended 28 days after the start of treatment. [table]

[7] = system: uterine serous carcinoma (USC) or high-grade serous ovarian cancer (HGSOC); assay: Azenosertib in subjects with USC or HGSOC grouped by HRRm status: tumor response and progression free survival; type: in vivo, human; settings: for tumor size change, median: USC population, azenosertib 300 mg or more; for progression free survival: subjects treated with 300+mg azenosertib
Experimental: Subjects with uterine serous carcinoma (USC) or high-grade serous ovarian cancer (HGSOC) were treated with azenosertib and grouped by azenosertib dose of lower than 300 mg (LT300) or at or greater than 300 mg azenosertib (300+mg). […] Total subjects in parenthesis includes all subjects in the study including subjects receiving LT300.
Subjects selected in Table 1 were evaluated for tumor response when treated with doses of 300 mg or more of azenosertib or with lower than 300 mg of azenosertib. In the USC population treated with azenosertib of 300 mg or more (300+), HRRm positivity was associated with better tumor response (p=0.01). (FIG. 1B and FIG. 1C). The HRRm median was −33% and HRR wt median was −5%. […] HRRm subject population was associated with 8.3 months of progression free survival, compared to HRR wt subject population with 4.2 months progression free survival. (FIG. 1D). HRRm status was associated with better progression free survival in subjects treated with at least 300 mg azenosertib, supporting an effective dose of 300 mg or more in HRD subjects.

[8] = Body weight loss and clinical observations in ovarian PDX study; type: in vivo
Experimental: Relative Body Weight (RBW), individual body weight and mean body weight loss percent were calculated for each measurement by dividing the body weight by the body weight at the start of treatment as described in Example 3.

[9] = system: MDA-MB-436 Ola^R (BRCA reversion) TNBC cell line; assay: In vitro activity (IC50) in olaparib-resistant MDA-MB-436; type: cell-based; settings: Homo sapiens; MDA-MB-436 Ola^R; read-out: In vitro activity (IC50) Olaparib^R (BRCA reversion)
Experimental: as §1, §2

[10] = azenosertib 60 mg/kg p.o. qd × 5 3 cycle
[11] = azenosertib 80 mg/kg p.o. qd × 5 3 cycle
[12] = azenosertib 60 mg/kg and/or niraparib 35 mg/kg p.o., (5 days on, 2 days off) × 4

C=CCn1c(=O)c2cnc(Nc3ccc(N4CCN(C)CC4)cc3)nc2n1-c1ccc2c(n1)[C@@](O)(CC)CC2 [Azenosertib, azenosertib]
pIC50 [1]: 6.55 | % TGI Day 5 [2, 10]: 54.08% | % TGI Day 8 [2, 10]: 32.68% | % TGI Day 12 [2, 10]: 44.02% | % TGI Day 15 [2, 10]: 26.61% | % TGI Day 19 [2, 10]: 14.55% | % TGI Day 5 [2, 11]: 38.26% | % TGI Day 8 [2, 11]: 23.80% | % TGI Day 12 [2, 11]: 26.16% | % TGI Day 15 [2, 11]: 19.47% | % TGI Day 19 [2, 11]: 38.13% | tumor volume compared to the PARP inhibitor [3]: significant reduction in tumor volume | tumor volume compared to the PARP inhibitor [4]: significant reduction in tumor volume | target lesion on scan ([5]; after treatment with azenosertib): no longer visualized | cPR (confirmed partial response) ([5]; at least 400 mg azenosertib once a day, five days on, two off, five months, 7 prior lines): −48% | tumor growth inhibition in HRD+ models compared to the HRD- model [6]: increased tumor growth inhibition | tumor size change, median ([7]; HRR wt): −5% | tumor size change, median ([7]; HRRm): −33% | progression free survival ([7]; HRR wt): 4.2 months | progression free survival ([7]; HRRm): 8.3 months | Max. individual BWL [8, 12]: 7.6% | Max. mean BWL [8, 12]: 0.7% | tolerability (body weight data and clinical observations) ([8]; azenosertib at 60 mg/kg, niraparib at 35 mg/kg, single agents or in combination): well tolerated | pIC50 [9]: 6.76
